These results are taken from patent publication US10781215B2, “Heterobicyclic compounds useful as modulators of IL-12, IL-23 and/or IFNα responses” (BRISTOL-MYERS SQUIBB COMPANY, priority 2016, dated 2020).

The test system of test [1] is IL-23 stimulated Kit225 T cells (STAT-dependent luciferase reporter). Briefly: Kit225 T cell assay, IL-23 stimulated STAT-dependent luciferase reporter. The class given is cell-based. Conditions: 20 ng/mL human recombinant IL-23, 5-6 hours. How it is done:
(§1) Kit225 T cells with a stably-integrated STAT-dependent luciferase reporter were plated in RPMI (Gibco) containing 10% heat-inactivated FBS (Gibco) and 100 U/mL PenStrep (Gibco). The cells were then stimulated with either 20 ng/mL human recombinant IL-23 or 200 U/mL human recombinant IFNα (PBL InterferonSource) for 5-6 hours. Luciferase expression was measured using the STEADY-GLO® Luciferase Assay System (Promega) according to the manufacturer's instructions. Inhibition data were calculated by comparison to no inhibitor control wells for 0% inhibition and non-stimulated control wells for 100% inhibition. Dose response curves were generated to determine the concentration required to inhibit 50% of cellular response (IC50) as derived by non-linear regression analysis.

Test [2] concerns IFNα stimulated Kit225 T cells (STAT-dependent luciferase reporter). Briefly: Kit225 T cell assay, IFNα stimulated STAT-dependent luciferase reporter. The class given is cell-based. To be noted: 200 U/mL human recombinant IFNα, 5-6 hours. How it is done:
as §1

The target in test [3] is T1, human Tyk2 (amino acids 575-869, His-tagged) (Homo sapiens, UniProt P29597).
T1 construct: made in house
Put plainly: Probe displacement assay (SPA format). The class given is binding. To be noted: radiolabeled probe 40 nM, Tyk2 2.5 nM. How it is done: Probe Displacement Assay (SPA Format) The probe displacement assay is conducted as follows: In a […], test compounds along with recombinantly expressed His-tagged protein corresponding to amino acids 575-869 of human Tyk2 (sequence shown below) at 2.5 nM, 40 nM ((R)—N-(1-(3-(8-methyl-5-(methylamino)-8H-imidazo [4,5-d]thiazolo [5,4-b]pyridin-2-yl)phenyl)ethyl)-2-([^3H]methylsulfonyl)benzamide) (preparation described below) and 80 μg/mL Copper His-Tag scintillation proximity assay beads (Perkin Elmer, Catalog # RPNQ0095) in 50 mM HEPES, pH 7.5, containing 100 μg/mL bovine serum albumin and 5% DMSO were incubated for 30 minutes at room temperature. The amount of radiolabeled probe (preparation described below) bound to Tyk2 was then quantified by scintillation counting, and the inhibition by the test compound calculated by comparison to wells either with no inhibitor (0% inhibition) or without Tyk2 (100% inhibition). The EC50 value is defined as the concentration of test compound required to inhibit radiolabeled probe binding by 50%. Probe Displacement Assay (HTRF Format)

Structures are written as SMILES.

T1 sequence (P29597 with tags, fused parts or gaps): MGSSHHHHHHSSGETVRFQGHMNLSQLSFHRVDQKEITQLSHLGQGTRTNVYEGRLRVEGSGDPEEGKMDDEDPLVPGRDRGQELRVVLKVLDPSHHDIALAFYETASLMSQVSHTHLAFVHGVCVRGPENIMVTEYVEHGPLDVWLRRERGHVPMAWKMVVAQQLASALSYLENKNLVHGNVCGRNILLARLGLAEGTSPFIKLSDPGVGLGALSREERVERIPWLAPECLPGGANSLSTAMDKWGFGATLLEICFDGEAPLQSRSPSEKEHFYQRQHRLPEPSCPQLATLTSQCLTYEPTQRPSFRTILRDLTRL

Broadly, the IC50 is the point on the concentration scale where inhibition reaches its midpoint. As a reminder, the EC50 is the concentration that produces a half-maximal response. As for `COc1ccccc1Nc1cc(NC(=O)C2CC2)nc2[nH]c(C)nc12` [Example 35, N-{7-[(2-methoxyphenyl)amino]-2-methyl-3H-imidazo[4,5-b]pyridin-5-yl}cyclopropanecarboxamide], the IC50 worked out at 3140 nM in test [1] and 5130 nM in test [2]. In addition, the EC50 in test [3] came to 814 nM.
For the compound `Cc1nc2c(Nc3ccccc3S(C)(=O)=O)cc(Nc3cnc(C(F)(F)F)cn3)nc2[nH]1` [Example 12, 7-N-(2-methanesulfonylphenyl)-2-methyl-5-N-[5-(trifluoromethyl)pyrazin-2-yl]-3H-imidazo[4,5-b]pyridine-5,7-diamine], the concentration for half-maximal inhibition (IC50) was found to be 357 nM in test [1] and 818 nM in test [2]. Also, the concentration for a half-maximal effect (EC50) in test [3] was 30 nM.
For `COc1ccccc1Nc1cc(Nc2cc(C)nc(C)n2)nc2[nH]c(C)nc12` [Example 36, 5-N-(2,6-dimethylpyrimidin-4-yl)-7-N-(2-methoxyphenyl)-2-methyl-3H-imidazo[4,5-b]pyridine-5,7-diamine] the same measures were 824 nM, 1520 nM and 291 nM.
Turning to `Cc1ccnc(Nc2cc(Nc3ccccc3S(C)(=O)=O)c3nc(C)[nH]c3n2)c1` [Example 20, 7-N-(2-methanesulfonylphenyl)-2-methyl-5-N-(4-methylpyridin-2-yl)-3H-imidazo[4,5-b]pyridine-5,7-diamine], the results for the concentration for half-maximal inhibition (IC50) in test [1] and in test [2] were 407 nM and 401 nM, respectively. Also, in test [3], a half-maximal response (EC50) required 53 nM.
In the same order, the values of `COc1ccnc(Nc2cc(Nc3ccccc3S(C)(=O)=O)c3nc(C)[nH]c3n2)c1` [Example 18, 7-N-(2-methanesulfonylphenyl)-5-N-(4-methoxypyridin-2-yl)-2-methyl-3H-imidazo[4,5-b]pyridine-5,7-diamine] are 2400 nM, 3620 nM and 240 nM.
In the case of `Cc1nc2c(Nc3ccccc3S(C)(=O)=O)cc(Nc3ccc(N4CCC(C)(O)CC4)cn3)nc2[nH]1` [Example 9, 1-[6-({7-[(2-methanesulfonylphenyl)amino]-2-methyl-3H-imidazo[4,5-b]pyridin-5-yl}amino)pyridin-3-yl]-4-methylpiperidin-4-ol], the half-inhibitory concentration (IC50) stood at 854 nM in test [1] and 564 nM in test [2]. In test [3], this compound gave an EC50 of 17 nM.
For `Cc1cc(Nc2cc(Nc3ccccc3S(C)(=O)=O)c3nc(C)[nH]c3n2)nc(C)n1` [Example 4, 5-N-(2,6-dimethylpyrimidin-4-yl)-7-N-(2-methanesulfonylphenyl)-2-methyl-3H-imidazo[4,5-b]pyridine-5,7-diamine] the same measures were 347 nM, 196 nM and 12 nM.
For `COc1ccccc1Nc1cc(Nc2ccc(N3CCOCC3)cn2)nc2[nH]c(C)nc12` [Example 37, 7-N-(2-methoxyphenyl)-2-methyl-5-N-[5-(morpholin-4-yl)pyridin-2-yl]-3H-imidazo[4,5-b]pyridine-5,7-diamine] the same measures were 3880 nM, 1040 nM and 432 nM.
For `Cc1nc2c(Nc3ccccc3S(C)(=O)=O)cc(Nc3ccc(N4CCOCC4)cn3)nc2[nH]1` [Example 5, 7-N-(2-methanesulfonylphenyl)-2-methyl-5-N-[5-(morpholin-4-yl)pyridin-2-yl]-3H-imidazo[4,5-b]pyridine-5,7-diamine] the same measures were 190 nM, 161 nM and 11 nM.
In the case of `CCc1nc2c(Nc3ccccc3S(C)(=O)=O)cc(Nc3cc(C)nc(C)n3)nc2[nH]1` [Example 52, 5-N-(2,6-dimethylpyrimidin-4-yl)-2-ethyl-7-N-(2-methanesulfonylphenyl)-3H-imidazo[4,5-b]pyridine-5,7-diamine], the IC50 in test [1] worked out at 1410 nM; in test [2], 4260 nM. This compound also showed an EC50 in test [3] of 107 nM.
Take `Cc1nc2c(Nc3ccccc3S(C)(=O)=O)cc(Nc3cc(F)ccn3)nc2[nH]1` [Example 17, 5-N-(4-fluoropyridin-2-yl)-7-N-(2-methanesulfonylphenyl)-2-methyl-3H-imidazo[4,5-b]pyridine-5,7-diamine]: the half-inhibitory concentration (IC50) in test [1] was 104 nM; in test [2] it was 128 nM. The same compound came in with a half-maximal effective concentration (EC50) in test [3] of 15 nM.
Take `Cc1nc2c(Nc3ccccc3S(C)(=O)=O)nc(Nc3ccc(F)cc3)nc2[nH]1` [Example 1, N2-(4-fluorophenyl)-8-methyl-N6-(2-(methylsulfonyl)phenyl)-9H-purine-2,6-diamine]: the IC50 worked out at 1410 nM in test [1] and 4260 nM in test [2]. Moreover, a half-maximal response in test [3] (EC50) required 270 nM.
Turning to `Cc1cc(Nc2cc(Nc3ccccc3C(N)=O)c3nc(C)[nH]c3n2)nc(C)n1` [Example 33, 2-({5-[(2,6-dimethylpyrimidin-4-yl)amino]-2-methyl-3H-imidazo[4,5-b]pyridin-7-yl}amino)benzamide], the concentration for half-maximal inhibition (IC50) in test [1] was 1960 nM; in test [2], 1220 nM.
For the compound `Cc1cnc(Nc2cc(Nc3ccccc3S(C)(=O)=O)c3nc(C)[nH]c3n2)cn1` [Example 15, 7-N-(2-methanesulfonylphenyl)-2-methyl-5-N-(5-methylpyrazin-2-yl)-3H-imidazo[4,5-b]pyridine-5,7-diamine], the IC50 turned out to be 183 nM in test [1] and 207 nM in test [2]. The midpoint of the response in test [3], the EC50, lay at 31 nM.
In the same order, the values of `COc1ccc(Nc2cc(Nc3ccccc3S(C)(=O)=O)c3nc(C)[nH]c3n2)nn1` [Example 19, 7-N-(2-methanesulfonylphenyl)-5-N-(6-methoxypyridazin-3-yl)-2-methyl-3H-imidazo[4,5-b]pyridine-5,7-diamine] are 480 nM, 732 nM and 19 nM.
For `Cc1nc2c(Nc3ccccc3S(C)(=O)=O)cc(Nc3ccc(C(=O)N4CCOCC4)cn3)nc2[nH]1` [Example 8, 7-N-(2-methanesulfonylphenyl)-2-methyl-5-N-[5-(morpholine-4-carbonyl)pyridin-2-yl]-3H-imidazo[4,5-b]pyridine-5,7-diamine] the same measures were 1950 nM, 1470 nM and 21 nM.
In the same order, the values of `Cc1nc2c(Nc3ccccc3S(C)(=O)=O)cc(Nc3ccn(C(C)C)n3)nc2[nH]1` [Example 30, 7-N-(2-methanesulfonylphenyl)-2-methyl-5-N-[1-(propan-2-yl)-1H-pyrazol-3-yl]-3H-imidazo[4,5-b]pyridine-5,7-diamine] are 579 nM, 503 nM and 58 nM.
In the case of `CCc1nc2c(Nc3ccccc3S(C)(=O)=O)cc(Nc3ccc(F)cn3)nc2[nH]1` [Example 51, 2-ethyl-5-N-(5-fluoropyridin-2-yl)-7-N-(2-methanesulfonylphenyl)-3H-imidazo[4,5-b]pyridine-5,7-diamine], the concentration for half-maximal inhibition (IC50) in test [1] came out at 1470 nM; in test [2], 1420 nM. For the same compound, in test [3], the EC50 was found to be 158 nM.
In the same order, the values of `Cc1nc2c(Nc3ccccc3S(C)(=O)=O)cc(Nc3cc(C)n(C)n3)nc2[nH]1` [Example 26, 5-N-(1,5-dimethyl-1H-pyrazol-3-yl)-7-N-(2-methanesulfonylphenyl)-2-methyl-3H-imidazo[4,5-b]pyridine-5,7-diamine] are 140 nM, 119 nM and 15 nM.
`Cc1nc2c(Nc3ccccc3S(C)(=O)=O)cc(Nc3ccc(N4CCCC4=O)cn3)nc2[nH]1` [Example 24, 1-[6-({7-[(2-methanesulfonylphenyl)amino]-2-methyl-3H-imidazo[4,5-b]pyridin-5-yl}amino)pyridin-3-yl]pyrrolidin-2-one]: the IC50 in test [1] stood at 1230 nM; in test [2] it was 636 nM. In test [3], this compound showed an EC50 of 15 nM.
`Cc1nc2c(Nc3ccccc3S(C)(=O)=O)cc(Nc3cc(C)c(F)cn3)nc2[nH]1` [Example 31, 5-N-(5-fluoro-4-methylpyridin-2-yl)-7-N-(2-methanesulfonylphenyl)-2-methyl-3H-imidazo[4,5-b]pyridine-5,7-diamine]: the IC50 was 235 nM in test [1] and 105 nM in test [2]. Further, the 50% effective concentration (EC50) in test [3] was found to be 12 nM.
As for `Cc1nc2c(Nc3ccccc3C(N)=O)cc(Nc3ccc(N4CCOCC4)cn3)nc2[nH]1` [Example 34, 2-[(2-methyl-5-{[5-(morpholin-4-yl)pyridin-2-yl]amino}-3H-imidazo[4,5-b]pyridin-7-yl)amino]benzamide], the IC50 in test [1] came to 4380 nM; in test [2] it was 5120 nM.
For `Cc1nc2c(Nc3ccccc3S(C)(=O)=O)cc(Nc3ccn(C)n3)nc2[nH]1` [Example 22, 7-N-(2-methanesulfonylphenyl)-2-methyl-5-N-(1-methyl-1H-pyrazol-3-yl)-3H-imidazo[4,5-b]pyridine-5,7-diamine] the same measures were 370 nM and 264 nM.
